Reference: US4177291A, “Compounds having antidepressive activity” (priority 1976, dated 1979)
Values after ≈ are worked out from the molar mass of the structure shown. Read-outs that look alike come from different tables or passages of the source.

Columns and labels:
[1] = test system: uptake of 3H-NA; test: Inhibition of uptake of 3H-noradrenaline in vitro (mouse midbrain slices); format: cell-based, mice; conditions: 5 min, compound added to incubation medium, l-noradrenaline 1×10^-7 M, 5 min incubation, ED50 from dose response curves, read-out: Inhibition (50%) of uptake in vitro NA
Description: (§1) The method is described by Ross, Renyi and Ogren in European Journal of Pharmacology 17 (1972), 107-112. Tricyclic antidepressant drugs of type imipramine added in vitro or given in vivo to mice decrease the uptake of ^14 C-5-HT and ^3 H-NA in vitro. In the in vitro experiments different concentrations of the test compound were added to the incubation medium. In the in vivo experiments different doses of the test drug were administered intraperitoneally half an hour before the animals were killed. The incubation performance was the same in the two types of experiments, i.e. the midbrain was taken out and sliced and incubated in a mixture consisting of, per 100 mg of brain slices, 0.2 n-mole of ^14 C-5-HT, 0.2 n-mole of ^3 H-NA and 11μ mole of glucose in 2 ml of Krebs-Henseleit buffer, pH 7.4. The incubation time was 5 minutes. The radioactive amines taken up in the slices were dissolved in Soluene-350® (Packard) and the amounts were determined with the double labelling technique by liquid scintillation. The concentration or dose producing 50 percent decrease of the active uptake (ED50) was determined graphically from dose response curves. Active uptake is defined as that part of the radioactive uptake which is inhibited by a high concentration of cocaine. All doses were given at least to four animals.

[2] = test system: uptake of 14C-5-HT; test: Inhibition of uptake of 14C-5-HT in vitro (mouse midbrain slices); format: cell-based, mice; conditions: 5 min, read-out: Inhibition (50%) of uptake in vitro 5-HT
Description: as §1

[3] = test system: 5-HTP behavioural syndrome; test: 5-HTP response potentiation test; format: in vivo, mice; conditions: Mus musculus, read-out: Potentiation of 5-HTP effective dose
Description: Inhibition of the uptake of 5-HT potentiates the effects of administered 5-hydroxytryptophan (5-HTP) probably by increasing the amount of 5-HT at the receptor. Three mice are given the test drugs one hour (or 4, 24 hours) before dl-5-HTP 90 mg/kg i.v. 5-HTP alone gives only a weak behavioural syndrome but in pretreated mice there is seen a characteristic behavioural syndrome, which comes within five minutes: tremor, lordosis, abduction of the hindlegs, head-twiches. The strength of the syndrome is scored from 0 to +3. Each group consists of 3 animals and at least 4 groups were tested at 25 mg/kg i.p. Control groups receiving imipramine (Tofranil®) are used as reference, since imipramine constantly potentiated dl-5-HTP. The least dose of the test compound producing maximal score (+3) in all animals is estimated from a logarithmic dose-response curve, and is denoted "effective dose" in the following Table.

[4] = test system: uptake of 3H-NA; test: Inhibition of uptake of 3H-noradrenaline in vivo (drug given i.p., uptake measured in midbrain slices); conditions: Mus musculus, ip, 0.5 h, mice dosed i.p. half an hour before killing, l-noradrenaline 1×10^-7 M, read-out: Inhibition (50%) of uptake in vivo NA
Description: as §1, with “Tricyclic antidepressant drugs of type imipramine added in vitro or given in vivo to mice decrease the uptake of ^14 C-5-HT and ^3 H-NA in vitro.” left out

[5] = test system: uptake of 14C-5-HT; test: Inhibition of uptake of 14C-5-HT in vivo (drug given i.p., uptake measured in midbrain slices); conditions: Mus musculus, ip, 0.5 h, mice dosed i.p. half an hour before killing, 5-HT 1×10^-7 M, read-out: Inhibition (50%) of uptake in vivo 5-HT
Description: as §1, with “Tricyclic antidepressant drugs of type imipramine added in vitro or given in vivo to mice decrease the uptake of ^14 C-5-HT and ^3 H-NA in vitro.” left out

CN(C)CCCN1c2ccccc2CCc2ccccc21 [Imipramine, imipramine]
IC50 [1]: 0.06 µg/mL (≈ 0.214 µM)
IC50 ([2]; Mus musculus): 0.1 µg/mL (≈ 0.357 µM)
minimal effective dose [3]: 15 mg/kg
ED50 [4]: 6 mg/kg
ED50 [5]: 24 mg/kg

CC(N)C(=O)CC(C)(C)Cc1ccc(Cl)cc1.Cl (stereo not shown) [GEA 995, 2-amino-6-(4-chlorophenyl)-5,5-dimethyl-3-hexanone hydrochloride]
IC50 [1]: > 10 µg/mL
IC50 ([2]; compound added to incubation medium, mouse midbrain slices, 5-HT 1×10^-7 M, 5 min incubation, ED50 from dose response curves): 0.6 µg/mL
minimal effective dose ([3]; mice, least dose producing maximal score (+3) in all animals, test drug given before dl-5-HTP 90 mg/kg i.v.): 4 mg/kg
ED50 [4]: > 40 mg/kg
ED50 [5]: 20 mg/kg
